Measured values published in patent US20210087640A1, “APPLICATION OF LARP7 GENE IN CANCER DIAGNOSIS AND TREATMENT” (SHANGHAI JIAO TONG UNIVERSITY, priority 2018, published 2021).
Read-outs that look alike come from different tables or passages of the source.

Tests used:
[1] = test system: triple-negative breast cancer cells HCC1937; assay: CCK8 cell viability experiment, HCC1937; assay type: cell-based; conditions: read-out: IC50 (the concentration of drug required for 50% inhibition)
[2] = test system: triple-negative breast cancer cells MDA-MB-231; assay: CCK8 cell viability experiment, MDA-MB-231; assay type: cell-based
[3] = test system: cervical cancer cells Hela; assay: CCK8 cell viability experiment, Hela; assay type: cell-based
[4] = test system: MDA-MB-231; assay: Clone formation experiment, MDA-MB-231; assay type: cell-based; conditions: LARP7 overexpression in MDA-MB-231 vs control
[5] = test system: Hela; assay: Clone formation experiment, Hela; assay type: cell-based; conditions: LARP7 overexpression in Hela vs control
[6] = test system: HCC1937 xenograft tumor; assay: Radiotherapy and chemotherapy of xenograft tumor mice, HCC1937; assay type: in vivo; conditions: CDDP and radiation
[7] = test system: MDA-MB-231 xenograft tumor; assay: Radiotherapy and chemotherapy of xenograft tumor mice, MDA-MB-231; assay type: in vivo; conditions: CDDP and radiation

SMILES | IC50 ([1]; HCC1937 control group (of LARP7 knock-down)) [µM] | IC50 ([1]; LARP7-knock-down HCC1937 cells) [µM] | IC50 ([2]; LARP7-overexpressing MDA-MB-231 cells) [µM] | IC50 ([2]; MDA-MB-231 control group (of LARP7 overexpression)) [µM] | IC50 ([3]; LARP7-knockdown (siLARP7, sgLARP7)) [µM] | IC50 ([3]; LARP7 overexpression) [µM] | IC50 ([3]; control group of LARP7-knockdown) [µM] | IC50 ([3]; control group of LARP7 overexpression) [µM] | sensitivity of the cells by clone formation [4] | sensitivity of the cells by clone formation [5] | sensitivity of in vivo tumor tissue ([6]; HCC1937 cells (high LARP7 expression)) | sensitivity of in vivo tumor tissue ([6]; LARP7-knock-out HCC1937 cells (sgLARP7)) | sensitivity of in vivo tumor tissue ([7]; MDA-MB-231 cells (low LARP7 expression)) | sensitivity of in vivo tumor tissue ([7]; MDA-MB-231 cells with artificial LARP7 overexpression) | IC50 ([1]; Homo sapiens, HCC1937, HCC1937 control group (of LARP7 knock-down)) [µM] | IC50 ([1]; Homo sapiens, HCC1937, LARP7-knock-down HCC1937 cells) [µM] | IC50 ([2]; Homo sapiens, MDA-MB-231, LARP7-overexpressing MDA-MB-231 cells) [µM] | IC50 ([2]; Homo sapiens, MDA-MB-231, MDA-MB-231 control group (of LARP7 overexpression)) [µM] | IC50 ([3]; Homo sapiens, HeLa, LARP7 overexpression) [µM] | IC50 ([3]; Homo sapiens, HeLa, control group of LARP7 overexpression) [µM]
[NH2][Pt]([NH2])([Cl])[Cl] [CDDP, cisplatin] | 102 ± 9.1 | 185 ± 20.5 | 76.3 ± 26.7 | 232 ± 83.9 | 55.8 ± 5.4 | 19.1 ± 6.9 | 31.4 ± 6 | 39.6 ± 2.5 | significantly increases the sensitivity | significantly increases cell sensitivity | sensitive | less sensitive | tolerant | significantly improved the sensitivity |  |  |  |  |  | 
CO[C@@]12[C@H](COC(N)=O)C3=C(C(=O)C(C)=C(N)C3=O)N1C[C@@H]1N[C@@H]12 [MMS, mitomycin] |  |  |  |  |  |  |  |  |  |  |  |  |  |  | 247 ± 38.1 | 682 ± 123 | 262 ± 20.3 | 451 ± 29.4 | 123 ± 22 | 210 ± 21.6
